Experiments:
[1] = test system: A2ECs treated with IL-17A; test: A2ECs exposed to IL-17A in vitro; type: cell-based, mouse; conditions: for IL-17A-induced p53 and PAI-1 expression, and apoptosis: A2ECs from WT mice, IL-17A 100 ng/ml
Protocol: FIGS. 49A-49B show the role of IL-17A in PTS-induced p53, PAI-1 expression, and apoptosis in A2ECs. (A) IL-17A^−/− mice resist PTS-induced p53 expression and apoptosis in A2ECs. Mice were kept in ambient AIR or exposed to 20 weeks of PTS. A2ECs isolated from WT and IL-17A^−/− mice in AIR or exposed to PTS were analyzed for acetylated/total p53, Sirt1 and activated caspase-3 to assess apoptosis by Western blotting. (B) CSP inhibits IL-17A-induced p53 and PAI-1 expression and apoptosis in A2ECs in vitro. A2ECs isolated from WT mice were treated with PBS or IL-17A (100 ng/ml) in the presence or absence of CSP or control peptide, CP for 24 h in culture dishes. A2EC lysates were immunoblotted for p53, PAI-1, Cl./total caspase-3 and β-actin. WT mice exposed to IL-17A (FIG. 48D) and PTS (FIG. 46A) induce p53 acetylation and Cav1 expression, while inhibiting Sirt1 in A2ECs.
FIGS. 58A-58B show a 7-amino acid fragment of CSP, CSP7 Inhibits IL-17A-induced A2EC apoptosis. (A) Fragments of CSP were synthesized as shown. (B) A2ECs were treated with CSP or its fragments, or CP, 2 h after exposure of cells to IL-17A. A2EC lysates were immunoblotted for acetylated/total p53 and active/total caspase-3 24 h after IL-17A exposure. β-actin levels were evaluated to assess equal loading.
Increased p53 and apoptosis in A2ECs of mice exposed to PTS or IL-17A provided evidence that PTS acts by increasing IL-17A. To confirm that increased IL-17A contributes to the induction of p53 and PAI-1 expression, and apoptosis in A2ECs during PTS-induced lung injury, IL-17A-deficient mice were exposed to 20 weeks of PTS and control mice were kept in ambient air. A2ECs were tested for p53^AC, p53 and Sirt1 expression, and apoptosis. The responses were compared with changes in A2ECs isolated from WT mice exposed to 20 weeks of PTS or AIR. There was marked induction of p53^AC and p53 levels, and apoptosis with parallel suppression of Sirt1 expression in WT mice exposed to 20 weeks of PTS. […] To confirm mitigation of PTS induced lung injury by CSP or CSP7 involves suppression of IL-17A-induced p53, PAI-1 and apoptosis, A2ECs isolated from WT mice were next treated with IL-17A (100 ng/ml) with or without CSP, CSP7 or CP. Control cells were treated with vehicle (PBS) alone. The A2EC lysates were tested for p53 and p53-mediated downstream induction of PAI-1, and apoptosis. […] Further, induction of miR-34a increased p53 and apoptosis in A2ECs without exposure to tobacco smoke, while inhibition of miR-34a using miR-34a antisense (miR-34a-AS) reduced cigarette smoke induced p53 expression and apoptosis. Results of both in vitro and in vivo experiments support an intricate link between miR-34a, p53^AC, p53 and p53-mediated induction of PAI-1 expression, and A2EC apoptosis during PTS lung injury.

[2] = test system: A2Cs of WT mice with 8X-BLM-induced PF; test: Repeated bleomycin (8X-BLM) induced PF in WT mice, A2C telomere analyses; type: in vivo, mouse
Protocol: To analyze the effect of BLM, mice were exposed to BLM (40 μg/20 g body weight) once per two week for 16 weeks. Control mice were exposed to normal saline. At 14th week the peptide treatment at a dosage of 30 μg/20 g body weight was initiated and continued on a daily basis for the next 14 days. At the end of the experiment, the mice were euthanized and used for the experiments.
To evaluate the effect of CSP7 against chronic BLM-induced PF, the mice were exposed to BLM (40 μg/20 g body weight) once every two weeks for 16 weeks as described elsewhere. (Tiwari et al, 2016). Control mice were exposed to normal saline. Fourteen weeks later the CSP7 at a dosage of 1.5 mg/kg body weight was administered by IP injection and continued daily basis for the next two weeks as described elsewhere. (Tiwari et al, 2016; Shetty et al, 2008b). At the end of the experiment, the mice were euthanized and lung tissues and isolated A2Cs from the extracted lung tissues were used for further analysis.
Detection of telomerase activity. Telomerase activity was detected using a PCR-based telomeric repeat amplification protocol (TRAP) method using the TRAPeze Telomerase Detection Kit (Intergen, Purchase, NY, USA). Briefly, the cells were lysed in CHAPS lysis buffer and quantified by BCA method, and equal quantity of the protein samples was combined with the reaction mix in RNase-free PCR tubes. The PCR amplification was then performed following instruction of the manufacturer. The final PCR product was loaded onto a 12.5% non-denaturing polyacrylamide gel and subjected to electrophoresis. The polyacrylamide gel was stained with ethidium bromide and documented using a gel-doc unit (Bio-Rad Laboratories). The relative quantities of telomerase activity for each sample were calculated according to the instructions provided in the kit.
Measurement of terminal restriction fragment (telomeric) length. For the determination of telomeric length, the TeloTTAGGG Telomere Length Assay Kit (Roche Diagnostics GmbH) was used. Briefly, genomic DNA was isolated and digested with Hinf1/Rsa. The digested DNA fragments were then separated by electrophoresis on agarose gel followed by Southern blot transfer. The membrane was then hybridized with a telomere specific digoxigenin (DIG)-labelled probe, incubated with anti-DIG alkaline phosphatase, and documented with chemiluminescence detection in gel-doc unit (Bio-Rad Laboratories). Telomeric length was identified by comparing with the pre-labelled molecular weight marker. The relative telomere length was calculated according to the protocol provided. In addition, relative telomere length was analyzed by qPCR analysis of the genomic DNA. (Cawthon, Nucleic Acids Res 2002, 30:e47-e47; Alder et al, Proc Natl Acad Sci USA 2015, 112:5099-5104.) The 36B4 gene was served as the control.

Substance | IL-17A-induced p53 and PAI-1 expression, and apoptosis [1] | TERT enzyme activity ([2]; 8X-BLM PF) | TRF1, TRF2, PNUTS and TERT expression in A2Cs ([2]; 8X-BLM PF) | p53, PAI-1, SIAH1/2, caspase-3 activation, β-galactosidase in A2Cs ([2]; 8X-BLM PF) | IHC of lung sections for TRF2, p53, PAI-1, TRF1 ([2]; 8X-BLM PF (FIG. 25E)) | telomere length of A2Cs (qPCR) ([2]; 8X-BLM PF, treated two weeks) | p53 and caspase-3 activation ([1]; A2ECs + IL-17A, CSP deletion fragments)
DGIWKASFTTFTVTKYWFYR (listed as Homo sapiens) [CSP, 20 residue caveolin-1 scaffolding domain peptide] | inhibited IL-17A-induced p53 and PAI-1 expression, and apoptosis | – | – | – | – | – | –
WGIDKAFFTTSTVTYKWFRY [CP, scrambled control peptide with the same amino acid composition as CSP, reference compound] | – | still displayed shortened telomere | still harbor A2Cs with shortened telomere | – | – | – | –
FTTFTVT (listed as Homo sapiens) [CSP7, heptapeptide fragment of the caveolin-1 scaffolding domain peptide CSP] | inhibited IL-17A-induced p53 and PAI-1 expression, and apoptosis | significantly reversed | reversed | suppression | restoration of TRF2 expression with reduction in p53, PAI-1 and TRF1 | improved | inhibited p53 and caspase-3 activation

From patent US20240082342A1, “PEPTIDE THERAPEUTICS FOR INCREASING LUNG CELL VIABILITY” (BOARD OF REGENTS, THE UNIVERSITY OF TEXAS SYSTEM, priority 2018, published 2024)
